The values that follow come from patent US20040122058A1, “Use of specific compounds particularly kinase inhibitors for treating viral infections” (priority 2001, published 2004).

Experiment [1] deals with Marburg (MBG) virus infected peripheral blood mononuclear cells (PBMC). Format: cell-based, human.
Experiment [2] has as its system Ebola virus induced TNF-α release in primary human macrophages. It is filed as cell-based.
Experiment [3] concerns bacterial LPS-induced TNF-α release. It is filed as cell-based, human.
Experiment [4] relates to Marburg virus induced TNF-α release in primary human macrophages. It is filed as cell-based.
Experiment [5] has as its system Ebola (EBO) virus infected peripheral blood mononuclear cells (PBMC). Format: cell-based, human.
For experiment [6], the system named is IL-1 beta release of Ebola virus infected VeroE6 cells.
In experiment [7] the test system is IL-1 beta release of Marburg virus infected VeroE6 cells.

As for `COc1cccc(-c2cc(=O)c3ccccc3o2)c1N` [Compound 1, 2′-amino-3′-methoxyflavone], the TNF-α release entry in experiment [1] is “dose-dependent inhibitory effect”. Also, in experiment [2], the “Ebola virus induced TNFα production” value is “inhibited very strongly and dose-dependently”; the “virally induced TNF-α release” value is recorded as “inhibitory effects”. In addition, in [3], the “bacterial LPS-induced TNF-α production” value is “no inhibitory effect at all” and the “bacterial LPS-induced TNF-α release” value is given as “did not reduce”. In addition, in [4], the “Marburg virus induced TNFα production” value was “inhibited very strongly and dose-dependently”; the “virally induced TNF-α release” value was “inhibitory effects”. Moreover, the TNF-α release result in experiment [5] was “dose-dependent inhibitory effect”.
Regarding `O=C(NOCC1CC1)c1ccc(F)c(F)c1Nc1ccc(I)cc1Cl` [Compound 2, 2-(2-chloro-4-iodophenylamino)-N-cyclopropylmethoxy-3,4-difluorobenzamide], the TNF-α release entry in experiment [1] is on record as “inhibitory effect”. Moreover, in experiment [2], the “Ebola virus induced TNFα production” value was “inhibited very strongly and dose-dependently”; the “virally induced TNF-α release” value is recorded as “inhibitory effects”. Moreover, in experiment [3], the “bacterial LPS-induced TNF-α production” value is “no inhibitory effect at all” and the “bacterial LPS-induced TNF-α release” value is listed as “did not reduce”. Besides, in experiment [4], the “Marburg virus induced TNFα production” value is “inhibited very strongly and dose-dependently”; the “virally induced TNF-α release” value is “inhibitory effects”. Also, the TNF-α release result in experiment [5] is given as “inhibitory effect”.
For the compound `N#CC(=C(N)Sc1ccccc1N)C(C#N)=C(N)Sc1ccccc1N` [Compound 3, 1,4-diamino-2,3-dicyano-1,4-bis(2-aminophenylthio)butadiene], the TNF-α release result in [1] and in experiment [5] was “dose-dependent inhibitory effect” in each case. Besides, the “release of IL-1 beta to the supernatant” value in experiment [6] and in [7] was “dramatically reduces” each time. Moreover, the “Ebola virus induced TNFα production” value in [2] is “inhibited very strongly and dose-dependently”. Besides, the “virally induced TNF-α release” value in [2] and in experiment [4] was “inhibitory effects” each time. The “replication of Ebola virus (plaques)” value in the experiment with Ebola virus was “does not have an obvious effect”. For the same compound, the “bacterial LPS-induced TNF-α production” value in experiment [3] was “no inhibitory effect at all”. For the same compound, the “bacterial LPS-induced TNF-α release” value in experiment [3] is on record as “did not reduce”. In the experiment with Marburg virus, the “replication of Marburg virus (plaques)” value was “does not have an obvious effect”. In addition, the “Marburg virus induced TNFα production” value in experiment [4] is “inhibited very strongly and dose-dependently”.
`Oc1ccc(-c2nc(-c3ccc(F)cc3)c(-c3ccncc3)[nH]2)cc1` [Compound 4]: the “Ebola virus induced TNF-α release/production” value in experiment [2] is given as “did not significantly inhibit”. Also, the “bacterial LPS-induced TNF-α production” value in experiment [3] is listed as “no inhibitory effect at all”. For the same compound, the “Marburg virus induced TNF-α release/production” value in experiment [4] is given as “did not significantly inhibit”.
